Laboratory results: ChEMBL document CHEMBL3991601, “The target landscape of clinical kinase drugs” (Science, 2017)
The source made the active and inactive calls.

How the values were obtained:
[1] = molecular target: RAC-alpha serine/threonine-protein kinase (Homo sapiens, UniProt P31749)
[2] = molecular target: T1, Long-chain-fatty-acid--CoA ligase 5 (Homo sapiens, UniProt Q9ULC5)
T1 sequence (Q9ULC5 whole entry): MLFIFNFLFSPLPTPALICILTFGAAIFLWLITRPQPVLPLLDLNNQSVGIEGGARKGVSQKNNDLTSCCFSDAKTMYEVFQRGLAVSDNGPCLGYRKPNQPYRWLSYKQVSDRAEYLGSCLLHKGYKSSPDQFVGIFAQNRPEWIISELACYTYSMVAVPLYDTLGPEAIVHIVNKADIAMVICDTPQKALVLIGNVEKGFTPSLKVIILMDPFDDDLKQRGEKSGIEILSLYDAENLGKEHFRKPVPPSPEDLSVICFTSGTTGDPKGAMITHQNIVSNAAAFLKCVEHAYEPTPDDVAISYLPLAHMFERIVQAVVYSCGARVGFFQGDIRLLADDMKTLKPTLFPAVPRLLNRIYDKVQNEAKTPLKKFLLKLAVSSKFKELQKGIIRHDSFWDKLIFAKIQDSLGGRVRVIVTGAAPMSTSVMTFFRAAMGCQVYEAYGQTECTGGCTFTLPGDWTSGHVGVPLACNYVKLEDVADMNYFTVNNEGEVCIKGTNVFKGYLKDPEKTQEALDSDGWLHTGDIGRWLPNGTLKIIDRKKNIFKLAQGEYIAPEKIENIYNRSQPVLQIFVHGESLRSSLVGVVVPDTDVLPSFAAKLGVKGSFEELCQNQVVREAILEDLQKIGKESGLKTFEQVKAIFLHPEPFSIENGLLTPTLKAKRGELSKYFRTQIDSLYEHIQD

[3] = molecular target: Casein kinase I isoform gamma-1 (Homo sapiens, UniProt Q9HCP0)
Sequence of Casein kinase I isoform gamma-1 (Q9HCP0 whole entry, canonical isoform): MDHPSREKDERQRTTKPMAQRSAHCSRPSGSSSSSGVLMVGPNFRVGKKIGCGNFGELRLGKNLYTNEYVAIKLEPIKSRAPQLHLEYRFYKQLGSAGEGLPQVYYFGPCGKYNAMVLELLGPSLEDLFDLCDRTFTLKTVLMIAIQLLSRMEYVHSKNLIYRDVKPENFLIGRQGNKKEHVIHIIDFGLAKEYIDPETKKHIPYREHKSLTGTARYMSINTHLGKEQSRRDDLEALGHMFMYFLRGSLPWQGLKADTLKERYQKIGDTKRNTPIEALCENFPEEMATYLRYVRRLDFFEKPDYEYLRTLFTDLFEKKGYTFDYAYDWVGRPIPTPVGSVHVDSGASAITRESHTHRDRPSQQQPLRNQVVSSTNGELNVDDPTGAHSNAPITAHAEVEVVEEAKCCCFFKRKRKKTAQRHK

[4] = molecular target: S-adenosylmethionine synthase isoform type-2 (Homo sapiens, UniProt P31153)
Sequence of S-adenosylmethionine synthase isoform type-2 (P31153 whole entry, canonical isoform): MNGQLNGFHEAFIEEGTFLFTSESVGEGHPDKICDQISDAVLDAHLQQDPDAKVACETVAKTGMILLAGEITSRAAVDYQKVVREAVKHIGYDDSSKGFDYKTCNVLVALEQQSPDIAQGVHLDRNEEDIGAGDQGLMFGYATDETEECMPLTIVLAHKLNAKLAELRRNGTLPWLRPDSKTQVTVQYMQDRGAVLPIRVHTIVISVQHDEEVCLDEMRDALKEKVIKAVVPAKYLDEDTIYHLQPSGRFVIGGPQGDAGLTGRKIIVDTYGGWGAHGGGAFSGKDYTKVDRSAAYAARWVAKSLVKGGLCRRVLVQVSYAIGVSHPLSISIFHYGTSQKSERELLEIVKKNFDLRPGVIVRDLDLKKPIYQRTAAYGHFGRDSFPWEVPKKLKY

[5] = molecular target: T2, Tyrosine--tRNA ligase, cytoplasmic (Homo sapiens, UniProt P54577)
T2 sequence (P54577 whole entry): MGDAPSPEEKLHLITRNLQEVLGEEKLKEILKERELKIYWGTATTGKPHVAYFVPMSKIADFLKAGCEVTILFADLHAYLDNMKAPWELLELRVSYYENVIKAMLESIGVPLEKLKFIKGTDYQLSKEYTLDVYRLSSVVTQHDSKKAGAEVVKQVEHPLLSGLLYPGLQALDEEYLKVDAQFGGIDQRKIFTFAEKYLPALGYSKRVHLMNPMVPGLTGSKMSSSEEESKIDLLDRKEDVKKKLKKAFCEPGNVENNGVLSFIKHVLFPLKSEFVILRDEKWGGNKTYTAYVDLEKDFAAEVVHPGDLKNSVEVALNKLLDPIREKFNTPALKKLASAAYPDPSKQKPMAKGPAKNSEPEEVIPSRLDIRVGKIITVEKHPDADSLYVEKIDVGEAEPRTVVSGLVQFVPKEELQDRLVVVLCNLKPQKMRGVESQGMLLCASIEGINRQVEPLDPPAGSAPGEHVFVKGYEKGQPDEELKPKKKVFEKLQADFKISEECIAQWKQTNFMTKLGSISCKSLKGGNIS

[6] = molecular target: Rho-associated protein kinase 2 (Homo sapiens, UniProt O75116)
Sequence of Rho-associated protein kinase 2 (O75116 whole entry): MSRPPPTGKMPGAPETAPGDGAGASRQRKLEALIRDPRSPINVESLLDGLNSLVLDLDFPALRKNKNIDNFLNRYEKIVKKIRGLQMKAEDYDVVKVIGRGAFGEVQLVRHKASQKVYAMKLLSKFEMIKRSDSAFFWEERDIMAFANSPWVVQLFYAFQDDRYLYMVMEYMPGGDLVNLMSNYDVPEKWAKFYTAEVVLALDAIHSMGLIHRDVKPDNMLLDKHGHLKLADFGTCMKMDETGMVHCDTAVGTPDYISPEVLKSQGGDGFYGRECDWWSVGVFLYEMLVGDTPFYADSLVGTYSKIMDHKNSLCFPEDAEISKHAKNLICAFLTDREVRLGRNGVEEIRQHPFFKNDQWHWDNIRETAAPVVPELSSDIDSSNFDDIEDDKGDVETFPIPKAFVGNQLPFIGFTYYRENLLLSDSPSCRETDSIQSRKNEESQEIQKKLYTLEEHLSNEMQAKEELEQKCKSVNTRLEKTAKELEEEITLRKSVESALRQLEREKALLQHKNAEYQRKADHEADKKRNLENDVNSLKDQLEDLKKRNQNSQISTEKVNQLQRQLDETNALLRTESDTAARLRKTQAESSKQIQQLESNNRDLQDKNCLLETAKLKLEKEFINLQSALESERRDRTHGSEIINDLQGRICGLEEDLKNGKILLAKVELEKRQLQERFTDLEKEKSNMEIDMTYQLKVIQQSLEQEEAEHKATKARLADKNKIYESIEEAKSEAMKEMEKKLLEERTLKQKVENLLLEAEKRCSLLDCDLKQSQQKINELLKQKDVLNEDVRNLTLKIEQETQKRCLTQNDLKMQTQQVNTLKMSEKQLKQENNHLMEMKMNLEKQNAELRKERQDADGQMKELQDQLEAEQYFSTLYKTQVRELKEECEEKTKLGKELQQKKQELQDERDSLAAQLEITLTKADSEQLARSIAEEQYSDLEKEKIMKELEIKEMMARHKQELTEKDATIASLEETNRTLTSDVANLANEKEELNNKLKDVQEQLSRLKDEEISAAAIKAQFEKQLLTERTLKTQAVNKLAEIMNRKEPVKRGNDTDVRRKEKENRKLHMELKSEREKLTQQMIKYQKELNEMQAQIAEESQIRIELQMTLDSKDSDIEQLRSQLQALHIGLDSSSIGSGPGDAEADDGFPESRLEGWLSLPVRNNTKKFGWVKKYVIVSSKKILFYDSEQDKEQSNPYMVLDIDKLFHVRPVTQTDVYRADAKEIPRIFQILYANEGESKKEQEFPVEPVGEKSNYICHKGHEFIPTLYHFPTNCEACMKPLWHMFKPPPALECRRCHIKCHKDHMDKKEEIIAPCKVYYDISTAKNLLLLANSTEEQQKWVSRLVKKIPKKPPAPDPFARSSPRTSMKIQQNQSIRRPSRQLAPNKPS

[7] = molecular target: Protein-tyrosine kinase 6 (Homo sapiens, UniProt Q13882)
Sequence of Protein-tyrosine kinase 6 (Q13882 whole entry): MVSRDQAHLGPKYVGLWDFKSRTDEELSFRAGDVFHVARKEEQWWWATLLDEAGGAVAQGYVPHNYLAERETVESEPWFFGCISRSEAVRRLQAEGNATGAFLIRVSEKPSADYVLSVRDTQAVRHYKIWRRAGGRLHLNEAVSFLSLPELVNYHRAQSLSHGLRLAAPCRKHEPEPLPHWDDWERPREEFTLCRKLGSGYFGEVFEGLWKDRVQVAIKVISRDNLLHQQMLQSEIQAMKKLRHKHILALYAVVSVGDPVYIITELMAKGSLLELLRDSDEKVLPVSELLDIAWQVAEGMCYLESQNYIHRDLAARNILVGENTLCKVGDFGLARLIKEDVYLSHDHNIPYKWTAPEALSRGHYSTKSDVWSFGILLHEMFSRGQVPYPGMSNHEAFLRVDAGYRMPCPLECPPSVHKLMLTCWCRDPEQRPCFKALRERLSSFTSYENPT

[8] = molecular target: T3, Phosphatidylinositol 5-phosphate 4-kinase type-2 alpha (Homo sapiens, UniProt P48426)
T3 sequence (P48426 whole entry): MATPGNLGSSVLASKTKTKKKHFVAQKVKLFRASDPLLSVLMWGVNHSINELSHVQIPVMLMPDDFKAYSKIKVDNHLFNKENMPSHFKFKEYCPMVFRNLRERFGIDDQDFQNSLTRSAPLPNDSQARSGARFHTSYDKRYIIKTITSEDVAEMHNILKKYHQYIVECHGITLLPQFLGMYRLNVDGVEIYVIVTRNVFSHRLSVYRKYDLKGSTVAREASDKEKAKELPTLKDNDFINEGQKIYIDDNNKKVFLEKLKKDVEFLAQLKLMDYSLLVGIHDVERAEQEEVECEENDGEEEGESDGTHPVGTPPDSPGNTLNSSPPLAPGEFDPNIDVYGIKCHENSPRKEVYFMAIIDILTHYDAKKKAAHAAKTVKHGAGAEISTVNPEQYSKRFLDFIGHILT

[9] = molecular target: Mitogen-activated protein kinase 3 (Homo sapiens, UniProt P27361)
Sequence of Mitogen-activated protein kinase 3 (P27361 whole entry): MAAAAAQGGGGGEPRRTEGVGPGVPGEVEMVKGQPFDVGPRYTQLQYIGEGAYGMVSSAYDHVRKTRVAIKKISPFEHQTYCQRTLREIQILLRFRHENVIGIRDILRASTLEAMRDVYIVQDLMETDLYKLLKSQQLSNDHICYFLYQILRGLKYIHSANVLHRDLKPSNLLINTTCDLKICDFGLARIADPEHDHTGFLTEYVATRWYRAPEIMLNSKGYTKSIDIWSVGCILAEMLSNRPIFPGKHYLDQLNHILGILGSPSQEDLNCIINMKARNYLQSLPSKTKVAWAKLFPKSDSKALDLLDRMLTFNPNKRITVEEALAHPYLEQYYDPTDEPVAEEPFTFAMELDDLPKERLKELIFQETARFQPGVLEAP

[10] = molecular target: cAMP-dependent protein kinase catalytic subunit gamma (Homo sapiens, UniProt P22612)
Sequence of cAMP-dependent protein kinase catalytic subunit gamma (P22612 whole entry, canonical isoform): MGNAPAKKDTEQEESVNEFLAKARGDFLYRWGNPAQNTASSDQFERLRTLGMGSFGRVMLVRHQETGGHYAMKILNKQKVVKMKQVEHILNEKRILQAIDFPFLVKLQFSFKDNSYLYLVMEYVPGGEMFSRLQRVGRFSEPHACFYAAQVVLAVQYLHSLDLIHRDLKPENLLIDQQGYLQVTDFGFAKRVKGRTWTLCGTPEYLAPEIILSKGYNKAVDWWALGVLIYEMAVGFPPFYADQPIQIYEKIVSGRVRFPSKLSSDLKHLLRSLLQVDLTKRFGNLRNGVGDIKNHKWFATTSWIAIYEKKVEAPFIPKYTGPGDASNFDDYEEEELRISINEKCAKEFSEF

[11] = molecular target: Casein kinase I isoform delta (Homo sapiens, UniProt P48730)
Sequence of Casein kinase I isoform delta (P48730 whole entry, canonical isoform): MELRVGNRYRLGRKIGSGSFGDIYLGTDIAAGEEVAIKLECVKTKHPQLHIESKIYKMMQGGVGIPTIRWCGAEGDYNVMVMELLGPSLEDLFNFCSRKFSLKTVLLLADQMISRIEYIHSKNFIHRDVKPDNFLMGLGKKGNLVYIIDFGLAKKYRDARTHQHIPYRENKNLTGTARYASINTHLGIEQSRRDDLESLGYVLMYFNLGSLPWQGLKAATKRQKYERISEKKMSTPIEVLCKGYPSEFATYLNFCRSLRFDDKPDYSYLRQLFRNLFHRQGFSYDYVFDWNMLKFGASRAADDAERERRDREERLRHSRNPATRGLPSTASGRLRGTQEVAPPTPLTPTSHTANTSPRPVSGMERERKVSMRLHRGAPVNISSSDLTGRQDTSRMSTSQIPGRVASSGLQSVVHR

[12] = molecular target: T4, Cytochrome c1, heme protein, mitochondrial (Homo sapiens, UniProt P08574)
T4 sequence (P08574 whole entry): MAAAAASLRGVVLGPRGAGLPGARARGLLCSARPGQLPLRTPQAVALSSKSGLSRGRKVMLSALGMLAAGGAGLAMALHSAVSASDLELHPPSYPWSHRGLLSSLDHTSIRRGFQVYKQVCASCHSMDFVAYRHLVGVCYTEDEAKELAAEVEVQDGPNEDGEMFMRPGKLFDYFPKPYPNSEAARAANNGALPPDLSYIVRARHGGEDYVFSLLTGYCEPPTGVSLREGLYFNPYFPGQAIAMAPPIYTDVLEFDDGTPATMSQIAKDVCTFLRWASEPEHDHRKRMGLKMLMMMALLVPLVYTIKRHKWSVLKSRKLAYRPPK

[13] = molecular target: MAP/microtubule affinity-regulating kinase 3 (Homo sapiens, UniProt P27448)
Sequence of MAP/microtubule affinity-regulating kinase 3 (P27448 whole entry): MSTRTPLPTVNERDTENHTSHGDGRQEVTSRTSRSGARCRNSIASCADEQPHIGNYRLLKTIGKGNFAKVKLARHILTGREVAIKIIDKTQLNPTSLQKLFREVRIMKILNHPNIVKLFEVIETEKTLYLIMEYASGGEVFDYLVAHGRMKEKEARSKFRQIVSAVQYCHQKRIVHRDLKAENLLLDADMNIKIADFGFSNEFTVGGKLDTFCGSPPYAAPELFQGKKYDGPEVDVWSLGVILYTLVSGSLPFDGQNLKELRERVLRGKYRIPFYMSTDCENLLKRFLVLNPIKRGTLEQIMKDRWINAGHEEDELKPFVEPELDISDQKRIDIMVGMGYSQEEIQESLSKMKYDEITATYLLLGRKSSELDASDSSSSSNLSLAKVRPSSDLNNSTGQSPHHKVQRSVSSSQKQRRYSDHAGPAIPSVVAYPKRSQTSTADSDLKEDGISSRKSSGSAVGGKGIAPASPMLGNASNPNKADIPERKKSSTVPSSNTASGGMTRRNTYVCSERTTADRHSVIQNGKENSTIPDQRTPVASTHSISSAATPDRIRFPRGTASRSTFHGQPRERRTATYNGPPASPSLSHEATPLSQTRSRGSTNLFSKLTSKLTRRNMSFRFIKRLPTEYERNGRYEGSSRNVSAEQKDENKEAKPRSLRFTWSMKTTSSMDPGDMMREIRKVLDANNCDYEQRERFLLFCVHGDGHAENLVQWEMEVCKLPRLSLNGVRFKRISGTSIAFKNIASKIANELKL

[14] = molecular target: Putative heat shock protein HSP 90-beta 2 (Homo sapiens, UniProt Q58FF8)
Sequence of Putative heat shock protein HSP 90-beta 2 (Q58FF8 whole entry): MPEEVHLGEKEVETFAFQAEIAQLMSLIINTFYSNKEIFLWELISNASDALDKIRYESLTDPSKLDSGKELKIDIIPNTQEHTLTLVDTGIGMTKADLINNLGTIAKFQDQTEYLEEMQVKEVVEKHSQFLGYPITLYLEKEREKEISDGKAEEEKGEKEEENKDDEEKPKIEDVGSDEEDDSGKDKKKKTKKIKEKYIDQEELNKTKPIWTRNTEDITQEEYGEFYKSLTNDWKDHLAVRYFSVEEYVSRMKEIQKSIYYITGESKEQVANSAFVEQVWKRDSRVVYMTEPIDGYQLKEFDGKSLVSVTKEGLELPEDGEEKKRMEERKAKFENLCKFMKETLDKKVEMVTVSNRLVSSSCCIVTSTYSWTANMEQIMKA
Also: in the data inactive means no Kd found up to 30 µM.

Row | Kd [1] | Kd [2] | Kd [3] | Kd [4] | Kd [5] | Kd [6] | Kd [7] | Kd [8] | Kd [9] | Kd [10] | Kd [11] | Kd [12] | Kd [13] | Kd [14] | Compound
1 | > 30 µM (inactive) | > 30 µM (inactive) | > 30 µM (inactive) | > 30 µM (inactive) | > 30 µM (inactive) | > 30 µM (inactive) | > 30 µM (inactive) | > 30 µM (inactive) | > 30 µM (inactive) | > 30 µM (inactive) | > 30 µM (inactive) | > 30 µM (inactive) | > 30 µM (inactive) | > 30 µM (inactive) | COc1cc(Nc2ncc(F)c(Nc3ccc4c(n3)N(COP(=O)(O)O)C(=O)C(C)(C)O4)n2)cc(OC)c1OC [FOSTAMATINIB]
2 | > 30 µM (inactive) | > 30 µM (inactive) | > 30 µM (inactive) | > 30 µM (inactive) | > 30 µM (inactive) | > 30 µM (inactive) | > 30 µM (inactive) | > 30 µM (inactive) | > 30 µM (inactive) | > 30 µM (inactive) | > 30 µM (inactive) | > 30 µM (inactive) | > 30 µM (inactive) | > 30 µM (inactive) | CCOc1ccn(-c2ccc(F)cc2)c(=O)c1C(=O)Nc1ccc(Oc2ccnc(N)c2Cl)c(F)c1 [BMS-777607]
3 | > 30 µM (inactive) | > 30 µM (inactive) | > 30 µM (inactive) | > 30 µM (inactive) | > 30 µM (inactive) | > 30 µM (inactive) | > 30 µM (inactive) | > 30 µM (inactive) | > 30 µM (inactive) | > 30 µM (inactive) | > 30 µM (inactive) | > 30 µM (inactive) | > 30 µM (inactive) | > 30 µM (inactive) | C[C@@H]1COC(Nc2ccc3ncnc(Nc4ccc(OCc5nccs5)c(Cl)c4)c3c2)=N1 [VARLITINIB]
4 | > 30 µM (inactive) | > 30 µM (inactive) | > 30 µM (inactive) | > 30 µM (inactive) | > 30 µM (inactive) | > 30 µM (inactive) | 1.76 µM (active) | > 30 µM (inactive) | > 30 µM (inactive) | > 30 µM (inactive) | > 30 µM (inactive) | > 30 µM (inactive) | > 30 µM (inactive) | > 30 µM (inactive) | COc1cc2nccc(Oc3ccc(NC(=O)C4(C(=O)Nc5ccc(F)cc5)CC4)cc3)c2cc1OC [CABOZANTINIB]

More lines, now with the values behind:

Row | Compound | Kd [1] | Kd [2] | Kd [3] | Kd [4] | Kd [5] | Kd [6] | Kd [7] | Kd [8] | Kd [9] | Kd [10] | Kd [11] | Kd [12] | Kd [13] | Kd [14]
5 | c1cc(OCCN2CCCCC2)cc(-c2n[nH]c3ccc(-c4nc[nH]n4)cc23)c1 [CC-401] | > 30 µM (inactive) | > 30 µM (inactive) | 0.282 µM (active) | > 30 µM (inactive) | > 30 µM (inactive) | > 30 µM (inactive) | > 30 µM (inactive) | > 30 µM (inactive) | > 30 µM (inactive) | > 30 µM (inactive) | 0.287 µM (active) | > 30 µM (inactive) | > 30 µM (inactive) | > 30 µM (inactive)
6 | Cc1c(Cn2c(C)nc3c(C(=O)O)cc(N4CCOCC4)cc32)cccc1C(F)(F)F [GSK-2636771] | > 30 µM (inactive) | > 30 µM (inactive) | > 30 µM (inactive) | > 30 µM (inactive) | > 30 µM (inactive) | > 30 µM (inactive) | > 30 µM (inactive) | > 30 µM (inactive) | > 30 µM (inactive) | > 30 µM (inactive) | > 30 µM (inactive) | > 30 µM (inactive) | > 30 µM (inactive) | > 30 µM (inactive)
7 | COc1ccc2c(OCc3nnc4ccc(-c5ccccc5)nn34)ccnc2c1 [AMG-208] | > 30 µM (inactive) | > 30 µM (inactive) | > 30 µM (inactive) | > 30 µM (inactive) | > 30 µM (inactive) | > 30 µM (inactive) | > 30 µM (inactive) | > 30 µM (inactive) | > 30 µM (inactive) | 0.002 µM | > 30 µM (inactive) | > 30 µM (inactive) | > 30 µM (inactive) | > 30 µM (inactive)
